# Measurements: paper PMC6472190, “Enhanced Liver Targeting of Camptothecin via Conjugation with Deoxycholic Acid” (Molecules, 2019)
# Read-outs that look alike come from different tables or passages of the source.
# Tests used:
# [1] = In vivo body distribution and pharmacokinetics after oral administration; design: species or system Kunming mice; conditions: male, Kunming, mouse
# Experimental: For body distribution investigations, 80 male Kunming mice (weight, 18–22 g; age, 6–8 weeks) were used. The animal experiments in this study were performed under the guidance of the care and use of laboratory animals in Zhejiang University of Technology, Hangzhou, China, and conformed to the National Institutes of Health Guide for Care and Use of Laboratory Animals (Publication No. 85-23). After fasting overnight, mice were received a single dose of G2 or CPT (30 mg/kg, calculated as CPT) suspension by gavage. At desired time (0.5, 1, 2, 4, 6, 8, 12 h), animals were sacrificed. Their blood samples were collected by eyeball removal and immediately centrifuged to separate plasma. The organs (heart, liver, spleen, lung, kidney) were removed and weighed before homogenization. And the plasma and tissue homogenate samples were stored at −80 °C until analysis.
# For determination of the compound concentration, 200 μL methanol and 100 μL acetonitrile were added to 100 μL plasma or tissue homogenate to precipitate protein, and 5 μL IS (2 μM) was also added. Mixtures were votexed for 2 min and centrifuged at 12,000 rpm for 10 min at 4 °C. Then, supernatant was transferred to a new tube and evaporated by an EZ-2 personal solvent evaporator (Genevac, Suffolk, UK). Finally, 50 μL of 50% acetonitrile (v/v) was added to re-dissolve the samples. After centrifuged at 13,000 rpm for 10 min, the supernatant was used for HPLC analysis.
# To determine G2 and CPT concentration in plasma and tissue homogenate, an Inertsil ODS-SP C18 column (5 μm, 4.6 × 250 mm; GL Sciences) was used. The mobile phase was made up of acetonitrile (A) and 0.1% formic acid (B). CPT was separated by an isocratic elution with 35:65 (v/v) A:B. A gradient eluant ((A:B) 0–3 min: 35:65; 3–8 min: from 35:65 to 80:20; 8–20 min: 80:20; 20–21 min: from 80:20 to 35:65; 21–25 min: 35:65) was used to separate G2. Other conditions were the same as cell model.
# The pharmacokinetic analysis using a non-compartmental model with the PKSolver pharmacokinetic software (China Pharmaceutical University, Nanjing, China) was conducted to calculate the key parameters of G2 and CPT. In order to evaluate whether the conjugate had the trend of liver targeting, liver targeting index (LTI) was calculated by Equation (1) below:LTI = AUC0–t’ in liver/AUC0–t in plasma (1) where AUC0–t’ in liver is the AUC0–t of drug in liver and AUC0–t in plasma is the AUC0–t of drug in plasma. All the data were presented as mean ± SD. Statistical analysis were performed by Student’s t-test using the SPSS 22.0 statistical software program (IBM company, Denver, CO, USA), and p < 0.05 was used as the criterion for statistical significant.
# [2] = Stability in simulated gastric fluid (SGF); format: in vitro ADME; conditions: 3 h
# Experimental: (§1) The stability of G2 and CPT was assessed in SGF, SIF and fresh rat plasma. SGF and SIF were prepared according to a previous report with slight modifications. Briefly, 0.3% (w/v) purified pepsin, 2 g of NaCl and 7 mL of HCl (12 M) were dissolved in 1000 mL of distilled water to obtain SGF (PH 1.2). To make SIF (PH 6.8), 6.8 g of KH2PO4, 1.0% (w/v) purified pancreatin and 77 mL of NaOH (0.2 M) were dissolved in 1000 mL of distilled water. SGF, SIF and rat plasma containing 10 μM G2 or CPT were incubated at 37 °C. At scheduled time points (0, 5, 10, 20, 30, 60, 90, 120, 180 min), 100 μL samples were collected and reaction was quenched immediately by adding 400 μL of ice cold acetonitrile. The mixture was votexed 2 min and centrifuged at 12000 rpm for 10 min. Then, the supernatant was filtered with a filter (0.22 μm) and detected by HPLC.
# (§2) To determine the concentration of G2 and CPT in the stability investigation, a C18 (5 μm, 4.6 × 250 mm, Elite, Dalian, China) reverse-phase column was used. The chromatographic separation was performed on isocratic elution with acetonitrile-0.1% formic acid (80:20, v/v) and acetonitrile-0.1% formic acid (60:40, v/v) for G2 and CPT, respectively. Other conditions were the same as cell model.
# [3] = Stability in simulated intestinal fluid (SIF); format: in vitro ADME; conditions: SIF pH 6.8, 10 μM, 37 °C, 3 h
# Experimental: as §1, §2
# [4] = test system: HepG2 cells; experiment: Competitive inhibition of antitumor activity (MTT assay) with deoxycholic acid pretreatment; conditions: for effect of deoxycholic acid pretreatment on cytotoxicity: HepG2, 1 μM deoxycholic acid 0.5 h, then 1 μM compound 48 h; for viability at 1 µM: Homo sapiens
# Experimental: After reaching logarithmic growth phase, HepG2 cells were passaged and 100 μL of the cell suspension was seeded into 96-well plates at a density of 5 × 10^4 cells/mL, then cells were cultured in an incubator (Thermo Fisher Scientific, Marietta, Ohio, USA) at 37 °C. After reached 80% confluence, cell monolayers were firstly incubated with or without 1 μM deoxycholic acid for 0.5 h. […] Next, cells were further incubated at 37 °C for 48 h. Then 20 μL of MTT reagent (5 mg/mL in PBS) was added and cells were incubated for another 4 h at 37 °C to allow MTT to be metabolized into formazan. Finally, the media was tapped out and 150 μL of DMSO was added to each well to dissolve the formazan crystals. After mixing, the absorbance was quantified at 490 nm using an ELISA Plate Reader (infinite M200 Pro, TECAN, Grodig, Salzburg, Austria).
# [5] = test system: HepG2 cells; experiment: Cellular uptake in HepG2 2D cell model with deoxycholic acid pretreatment; format: cell-based, human; conditions: HepG2 2D model, deoxycholic acid 0.5 h, then 10 μM compound 2 h
# Experimental: Cellular uptake of G2 and CPT into 2D HepG2 cell model was performed as described previously with slight modifications. […] Then, cells were cultured in an incubator at 37 °C. After reached 80% confluence, cell monolayers were pretreated with deoxycholic acid at different concentrations for 0.5 h. Next, the inhibitor of deoxycholic acid was removed and cells were washed twice with Hank’s balanced salt solution (HBSS). After 2 h incubation with 10 μM G2 or CPT, cells were washed three times with HBSS and digested with 200 μL of trypsin for 2 min to obtain single cell suspensions. Next, the cells were washed three times with cold HBSS and 250 μL of HBSS was added to resuspend the pellets. Then, the cells were lysed by freeze-thaw three times and sonicated for 10 min. […] The compound concentration was calculated by the corresponding standard curve. The protein concentration of the supernatant was determined by the Bradford method based on a standard curve made by desired concentrations of bovine serum albumin. The cellular uptake was presented as the quantity of G2 or CPT associated with 1 mg of cellular protein [32, 33].
# (§3) Both G2 and CPT were measured by HPLC analysis, which was performed using a Shimadzu HPLC system (Shimadzu, Kyoto, Japan). […] The column was maintained at 30 °C and the absorbance detector wavelength was 363 nm. […]
# [6] = test system: HepG2 spheroids; experiment: Cellular uptake in HepG2 3D spheroid cell model with deoxycholic acid pretreatment; format: cell-based, human; conditions: HepG2 3D model
# Experimental: The liquid overlay method was employed for the culturing of HepG2 spheroids as described previously. Cells reached logarithmic growth phase were digested by trypsin then centrifuged. The cell number was counted using a hemocytomete and cells were diluted in growth medium to a density of 1 × 10^4 cells/mL. Spheroids were seeded by pipetting 2 mL of the cell suspension into each well of a 6-well ultra-low attachment (ULA) plates (Corning®, Wujiang, China) and incubated for 3 days.
# After HepG2 spheroids were prepared as 3.3, they were transferred into 4 mL centrifuge tube and washed twice with HBSS. Then, the spheroids were resuspended with deoxycholic acid at different concentrations and seeded into the 6-well ULA plates again. After being cultured in an incubator for 0.5 h at 37 °C, the spheroids were transferred into 4 mL centrifuge tube and washed twice with HBSS to remove the deoxycholic acid. Then, they were resuspended with 10 μM G2 or CPT and seeded into the 6-well ULA plates. After being cultured in an incubator for 2 h at 37 °C, the spheroids were transferred into 4 mL centrifuge tube and washed three times with HBSS. […]
# as §3
# [7] = Stability in fresh rat plasma; format: in vitro ADME; conditions: 10 μM, 3 h
# Experimental: as §1, §2
# [8] = heart, po, 30 mg/kg, mice, oral 30 mg/kg calculated as CPT
# [9] = kidney, po, 30 mg/kg, mice, oral 30 mg/kg calculated as CPT
# [10] = liver, po, 30 mg/kg, mice, oral 30 mg/kg calculated as CPT
# [11] = lung, po, 30 mg/kg, mice, oral 30 mg/kg calculated as CPT
# [12] = plasma, po, 30 mg/kg, mice, oral 30 mg/kg calculated as CPT
# [13] = spleen, po, 30 mg/kg, mice, oral 30 mg/kg calculated as CPT
compound,measurement,setting,value
"CC[C@@]1(O)C(=O)OCc2c1cc1n(c2=O)Cc2cc3ccccc3nc2-1 [CPT, Camptothecin]",MRT inf,"[1]; heart, po, 30 mg/kg, heart, mice, oral 30 mg/kg calculated as CPT, read-out: MRT0–∞",6.35 ± 2.71 h
same,AUC(0-inf),[1]; [8],3.64 ± 1.61 µM·h
same,AUC(0-t),[1]; [8],2.86 ± 0.983 µM·h
same,Cmax,[1]; [8],954 ± 207 nM
same,Tmax,[1]; [8],0.6 ± 0.2 h
same,MRT inf,"[1]; kidney, po, 30 mg/kg, kidney, mice, oral 30 mg/kg calculated as CPT, read-out: MRT0–∞",5.32 ± 0.46 h
same,AUC(0-inf),[1]; [9],5.45 ± 1.19 µM·h
same,AUC(0-t),[1]; [9],4.83 ± 1.04 µM·h
same,Cmax,[1]; [9],1330 ± 218 nM
same,Tmax,[1]; [9],0.8 ± 0.245 h
same,Kp,"[1]; liver and plasma, mice, oral 30 mg/kg calculated as CPT, read-out: liver targeting index (LTI) = AUC0–t in liver/AUC0–t in plasma",4.84
same,MRT inf,"[1]; liver, po, 30 mg/kg, liver, mice, oral 30 mg/kg calculated as CPT, read-out: MRT0–∞",4.26 ± 0.38 h
same,AUC(0-inf),[1]; [10],7.46 ± 1.54 µM·h
same,AUC(0-t),[1]; [10],6.95 ± 1.32 µM·h
same,Cmax,[1]; [10],2080 ± 243 nM
same,Tmax,[1]; [10],1 h
same,MRT inf,"[1]; lung, po, 30 mg/kg, lung, mice, oral 30 mg/kg calculated as CPT, read-out: MRT0–∞",7.25 ± 1.77 h
same,AUC(0-inf),[1]; [11],12.4 ± 4.43 µM·h
same,AUC(0-t),[1]; [11],9.8 ± 2.59 µM·h
same,Cmax,[1]; [11],1640 ± 325 nM
same,Tmax,[1]; [11],1.2 ± 0.4 h
same,MRT inf,"[1]; plasma, po, 30 mg/kg, plasma, mice, oral 30 mg/kg calculated as CPT, read-out: MRT0–∞",3.22 ± 0.578 h
same,AUC(0-inf),[1]; [12],1.68 ± 0.252 µM·h
same,AUC(0-t),[1]; [12],1.56 ± 0.26 µM·h
same,Cmax,[1]; [12],465 ± 84 nM
same,Tmax,[1]; [12],0.5 h
same,MRT inf,"[1]; spleen, po, 30 mg/kg, spleen, mice, oral 30 mg/kg calculated as CPT, read-out: MRT0–∞",6.96 ± 2.95 h
same,AUC(0-inf),[1]; [13],9.29 ± 2.53 µM·h
same,AUC(0-t),[1]; [13],7.56 ± 1.72 µM·h
same,Cmax,[1]; [13],1530 ± 195 nM
same,Tmax,[1]; [13],0.9 ± 0.2 h
same,degraded rate after incubation in SGF,"[2]; SGF pH 1.2, 10 μM, 37 °C",37.9%
same,degraded after incubation in SIF,[3],16.1%
same,effect of deoxycholic acid pretreatment on cytotoxicity,[4],no distinct effects
same,effect of deoxycholic acid pretreatment on uptake,[5],no obvious change
same,effect of deoxycholic acid on cellular uptake,"[6]; deoxycholic acid 0.5 h, then 10 μM compound 2 h",no distinct effect
same,remaining after incubation in rat plasma,"[7]; fresh rat plasma, 37 °C",24.4%
"CC[C@@]1(OC(=O)COC(=O)CC[C@@H](C)[C@H]2CC[C@H]3[C@@H]4CC[C@@H]5C[C@H](O)CC[C@]5(C)[C@H]4C[C@H](O)[C@]23C)C(=O)OCc2c1cc1n(c2=O)Cc2cc3ccccc3nc2-1 [G2, CPT-20 (S)-O-acetate-deoxycholic acid]",AUC0–t in liver relative to CPT,"[1]; in vivo, po",2.31 fold
same,increase of liver targeting index in comparison to CPT,"[1]; in vivo, po",1.67 fold
same,Kp,"[1]; in vivo, po, 30 mg/kg",8.07
same,MRT inf,"[1]; in vivo, po, 30 mg/kg, MRT0–∞",4.36 ± 0.645 h
same,degraded rate after incubation in SGF,"[2]; 10 μM, pH 1.2",15.0%
same,effect of deoxycholic acid pretreatment on cytotoxicity,[4],markedly reduced
same,viability at 1 µM,"[4]; HepG2, read-out: cell viability, HepG2, 1 μM compound 48 h, after pretreatment with 1 μM deoxycholic acid for 0.5 h",71.1%
same,viability at 1 µM,"[4]; HepG2, read-out: cell viability, HepG2, 1 μM compound 48 h, without deoxycholic acid pretreatment",51.3%
same,decrease of cellular uptake compared to deoxycholic acid-free group,"[6]; pretreatment with 200 μM deoxycholic acid 0.5 h, 10 μM compound 2 h",66.4%
same,remaining after incubation in rat plasma,"[7]; rat, plasma",42.3%
